Laboratory results as given in PubChem BioAssay AID1552 (Sanford-Burnham Center for Chemical Genomics, 2009).
Calls of active or inactive are those of the source. The rule behind the calls is not given here.

molecular target: Ubiquitin-conjugating enzyme E2 N (Homo sapiens) (UniProt P61088); assay: NMR detection of UBE2N ligand binding – biophysical, purified protein (AID 1552); details: NMR binding to purified UBE2N
Sequence (P61088 whole entry, looked up): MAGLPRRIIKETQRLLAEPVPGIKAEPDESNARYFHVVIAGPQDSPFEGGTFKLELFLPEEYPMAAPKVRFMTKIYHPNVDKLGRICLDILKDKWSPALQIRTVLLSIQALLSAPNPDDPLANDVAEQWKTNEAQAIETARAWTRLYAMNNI

SMILES | Kd
CC(=O)Nc1cccc(-c2nnc3n2CC(C)S3)c1 (configuration not stated) | > 4 mM (inactive)
Nc1scc[n+]1CC(=O)[O-] | > 4 mM (inactive)
CC(C)(C(N)=O)/[N+]([O-])=C\c1ccccc1 | > 4 mM (inactive)
COc1c(C(C)C)oc2cc3oc(=O)ccc3cc12 | > 4 mM (inactive)
C(=C\c1ccccc1)/C=N/n1cnnc1 | > 4 mM (inactive)
CN(C)C1CCS(=O)(=O)C1 (configuration not stated) | > 4 mM (inactive)
CON(C)C(=O)Nc1ccc(Cl)cc1 | > 4 mM (inactive)
O=C(CNC(=O)c1ccc(F)cc1)NC1=NCCS1 | > 4 mM (inactive)
C[C@H]1[C@H](C)CC[C@]2(C(=O)O)CC[C@]3(C)C(=CCC4[C@@]5(C)C[C@@H](O)[C@H](O)[C@@](C)(CO)C5[C@H](O)C[C@]43C)[C@H]12 (some centres not stated) | > 4 mM (inactive)
CCOC(=O)c1snnc1-c1ccccc1 | > 4 mM (inactive)
N#CCCn1c(=O)oc2ccccc21 | > 4 mM (inactive)
OCC1=Cc2ccccc2OC1 | > 4 mM (inactive)
Cc1nnc(NCc2ccc3c(c2)OCO3)[nH]c1=O | > 4 mM (inactive)
Cc1cc(C)nc(/N=C(/N)N2CCC(C(N)=O)CC2)n1 | > 4 mM (inactive)
CN(C)C(=O)CSc1nc(N)cc(=O)[nH]1 | > 4 mM (inactive)
O=C(NCc1cccc(Cl)c1)c1cccnc1 | > 4 mM (inactive)
CC(=O)O[C@]1(C)CC[C@@]23CC1C(C)(C)[C@@H]2CC[C@H]3C | > 4 mM (inactive)
COc1ccc(NC(=O)/C=N/O)cc1 | > 4 mM (inactive)
CC(C)C(=O)NCC(c1ccco1)N1CCOCC1 (configuration not stated) | > 4 mM (inactive)
COc1cc(C(=O)O[C@H]2CC[C@@]3(C)[C@@H]4CC[C@H]5[C@]6(O)C[C@H](O)[C@@]7(O)[C@@H](CN8C[C@@H](C)CC[C@H]8[C@@]7(C)O)[C@]6(O)C[C@@]53OC24O)cc(OC)c1OC | > 4 mM (inactive)
COc1cccc(S(=O)(=O)Nc2cccnc2)c1 | > 4 mM (inactive)
Cc1ccc(/C=C2/NC(=S)NC2=O)s1 | > 4 mM (inactive)
Cn1c(=O)c2cn3ncccc3c2n(C)c1=O | > 4 mM (inactive)
NS(=O)(=O)c1ccc(NC(=O)C2CC2)cc1 | > 4 mM (inactive)
Nc1nc(CSc2ncn(-c3ccccc3)n2)cs1 | > 4 mM (inactive)

SMILES | Kd
CC(C)(C)c1ccc(SCC(N)=O)cc1 | > 4 mM (inactive)
Cc1[nH]c2ccccc2c1C(=O)CSc1ncn[nH]1 | > 4 mM (inactive)
COc1ccc(C(=O)NNC(=S)NC(C)=O)cc1 | > 4 mM (inactive)
COc1cc(O)ccc1C(C)=O | > 4 mM (inactive)
O=C1CSC(=Nc2cccc(C(=O)O)c2)N1 | > 4 mM (inactive)
O=S(=O)(Nc1ccc2c(c1)OCCO2)c1cccs1 | > 4 mM (inactive)
C=C[C@@](C)(O)CCC1C(=C)CCC2[C@@](C)(CO)CCC[C@]12C (some centres not stated) | > 4 mM (inactive)
Cc1nn(C)c(N2CCOCC2)c1N | > 4 mM (inactive)
O=C1CSC(=O)N1CN1CCCC1 | > 4 mM (inactive)
COc1ccc(NC(=O)CCCC(=O)O)c(OC)c1 | > 4 mM (inactive)
COc1ccc([C@H]2COc3c(ccc(O)c3OC)C2)c(OC)c1O | > 4 mM (inactive)
COCCOc1nc2ccccc2nc1C | > 4 mM (inactive)
CCOCC(=O)N1CCc2ccccc21 | > 4 mM (inactive)
CN(C)c1ccc(CNn2cnnc2)cc1 | > 4 mM (inactive)
COc1cc(OC)cc(-c2nc(N)n[nH]2)c1 | > 4 mM (inactive)
NC(Cn1ccc(=O)c(O)c1)C(=O)O (configuration not stated) | > 4 mM (inactive)
CC(=O)n1c(N)nc2ccccc21 | > 4 mM (inactive)
O=C(O)C1Cc2ccccc2N1 (configuration not stated) | > 4 mM (inactive)
NC(=O)c1cc(N)cc(C(N)=O)c1 | > 4 mM (inactive)
FC(F)(F)c1nnc2ccc(N3CCOCC3)nn12 | > 4 mM (inactive)
O=C(NCCO)c1ccccc1I | > 4 mM (inactive)
CSc1nc(C)c(Oc2ccccc2)c(=O)n1C | > 4 mM (inactive)
Cc1n[nH]c(=S)n(/N=C/c2ccccc2)c1=O | > 4 mM (inactive)
CN(C)Cc1c(N)cccc1O | > 4 mM (inactive)
O=C(O)CC(O)c1nc2ccccc2[nH]1 (configuration not stated) | > 4 mM (inactive)

SMILES | Kd
COc1cc(OC)c2c(OC)c(-c3ccc4c(c3)OCO4)c(=O)oc2c1 | > 4 mM (inactive)
OCc1ccc(Oc2ccccc2)nc1 | > 4 mM (inactive)
O=C(O)CSCc1c(F)cccc1Cl | > 4 mM (inactive)
COc1c2c(cc3cc[n+](C)cc13)OCO2 | > 4 mM (inactive)
Cc1ccccc1NC(=O)CSc1ccnc(=O)[nH]1 | > 4 mM (inactive)
CCOc1ccc(-c2n[nH]c(=S)n2C)cc1 | > 4 mM (inactive)
CC(=O)Nc1ccc2c(C)cc(=O)[nH]c2c1 | > 4 mM (inactive)
O=C(NN1C(=O)C2C3C=CC(C3)C2C1=O)C1CC=CCC1 (configuration not stated) | > 4 mM (inactive)
CN(C)S(=O)(=O)c1ccc(N2CCOCC2)nc1 | > 4 mM (inactive)
NC(=O)NCCCC(N)C(=O)O (configuration not stated) | > 4 mM (inactive)
COC(=O)c1c(OC)cc2c(c1C)Oc1c(Cl)c(O)c(Cl)c(C)c1C(=O)O2 | > 4 mM (inactive)
COc1ccc2nc(NC(=O)c3cnccn3)sc2c1 | > 4 mM (inactive)
Cn1nnc2c(N3CCC(C(N)=O)CC3)ncnc21 | > 4 mM (inactive)
Cc1cc(C)n(CC(=O)O)n1 | > 4 mM (inactive)
COc1ccccc1NC(=O)c1ccc(C)s1 | > 4 mM (inactive)
O=C(Nc1ccon1)c1ccc2c(c1)OCO2 | > 4 mM (inactive)
Cc1cccc(-n2c(N)cc(=O)[nH]c2=S)c1 | > 4 mM (inactive)
O=c1/c(=C/c2ccccc2F)sc2ncnn12 | > 4 mM (inactive)
O=C(Nc1nnc(C(F)(F)F)s1)c1cccnc1 | > 4 mM (inactive)
O=C(Cc1ccccc1)Nc1c[nH]c(=O)[nH]c1=O | > 4 mM (inactive)
CN(C)N1C(=O)c2ccccc2C1=O | > 4 mM (inactive)
O=c1cc(O)nc(SCc2ccccc2)[nH]1 | > 4 mM (inactive)
O=C1C2C3C=CC(C3)C2C(=O)N1c1ccccn1 (configuration not stated) | > 4 mM (inactive)
COc1ccc2[nH]cc(CCN(C)C)c2c1 | > 4 mM (inactive)
O=c1c(O)cc([C@H]2Oc3cc(O)cc(O)c3C[C@H]2O)cc2c([C@H]3Oc4cc(O)cc(O)c4C[C@H]3O)cc(O)c(O)c12 | > 4 mM (inactive)

SMILES | Kd
O=C(NCc1ccccc1)c1ccc[n+]([O-])c1 | > 4 mM (inactive)
Cn1ccc(NC(=S)Nc2cccc([N+](=O)[O-])c2)n1 | > 4 mM (inactive)
Cc1nn2c3ccccc3nc2n(Cc2ccccc2)c1=O | > 4 mM (inactive)
CC(=O)c1cnc2nc(C(F)(F)F)nn2c1C | > 4 mM (inactive)
CC(C)n1c(-c2ccncc2)n[nH]c1=S | > 4 mM (inactive)
NC(=O)c1ccc(-c2csnn2)cc1 | > 4 mM (inactive)
CC(=O)NC(=S)Nc1ccccc1C | > 4 mM (inactive)
O=c1[nH]cc(CN2CCOCC2)c(=O)[nH]1 | > 4 mM (inactive)
NCc1ccc2c(c1)CCO2 | > 4 mM (inactive)
CC(=O)c1c(C)n([O-])c2ccccc2[n+]1=O | > 4 mM (inactive)
Cc1ccc(CCNc2ccccc2)c[n+]1[O-] | > 4 mM (inactive)
Nc1ccc(S(=O)(=O)Nc2ccc(F)cc2F)cc1 | > 4 mM (inactive)
COC(=O)c1cncn1C | > 4 mM (inactive)
O=C(c1ncc[nH]1)c1ccccc1C(=O)N1CCOCC1 | > 4 mM (inactive)
COc1ccc2[nH]cc(CCNC(C)=O)c2c1 | > 4 mM (inactive)
O=C1NCCCC1C(=O)N1CCCCC1 (configuration not stated) | > 4 mM (inactive)
O=C1CSC(=Nc2ccccc2)N1 | > 4 mM (inactive)
Cn1cnc2c(Cl)ncnc21 | > 4 mM (inactive)
O=C(O)c1ccccc1C(=O)NCC1CCCO1 (configuration not stated) | > 4 mM (inactive)
O=C(O)c1cccc(-n2cccc2)c1 | > 4 mM (inactive)
Cc1nn2c(nc1=O)SCC(c1ccccc1)=N2 | > 4 mM (inactive)
CN=C(c1ccc([N+](=O)[O-])cc1)N(C)C | > 4 mM (inactive)
CCCN1CCC(N2CCC(O)CC2)CC1 | > 4 mM (inactive)
Cc1cc(=O)[nH]c(N2CCN(Cc3ccccc3)CC2)n1 | > 4 mM (inactive)
CC(C)NC(=O)Cc1c(O)c2ccccc2[nH]c1=O | > 4 mM (inactive)

SMILES | Kd
CN1C(=O)c2ccc(C(=O)NCc3ccccc3)cc2C1=O | > 4 mM (inactive)
Cn1c(NCc2ccccc2O)nc2ccccc21 | > 4 mM (inactive)
CCOC(=O)C1CCN(c2ccc(C#N)cc2)CC1 | > 4 mM (inactive)
CC1CN(C2=NCCN2)CC(C)O1 (configuration not stated) | > 4 mM (inactive)
Cn1ncc(SCc2ccco2)c(Cl)c1=O | > 4 mM (inactive)
COc1ccc(-c2nnc(-c3ccc(N)cc3)o2)cc1 | > 4 mM (inactive)
Cc1nnc(N2CCN(c3ccccc3)CC2)[nH]c1=O | > 4 mM (inactive)
CC(=O)N(c1ccccc1)C1C=CS(=O)(=O)C1 (configuration not stated) | > 4 mM (inactive)
Cc1cc(=O)n2[nH]cnc2n1 | > 4 mM (inactive)
O=C(NC(=S)NC1CCSC1=O)c1ccco1 (configuration not stated) | > 4 mM (inactive)
Cc1ccc(C)n1CCN1CCNCC1 | > 4 mM (inactive)
Cc1cc2cc(N)ccc2[nH]1 | > 4 mM (inactive)
O=C1CSC(=Nc2ccccc2[N+](=O)[O-])N1 | > 4 mM (inactive)
O=C(Nc1cnccn1)c1cccs1 | > 4 mM (inactive)
Nc1ccccc1C(=O)N1CCOCC1 | > 4 mM (inactive)
C=C[C@@](C)(O)CCC1C(=C)C[C@H](OC(C)=O)C2C(C)(C)CCCC12C (some centres not stated) | > 4 mM (inactive)
O=C(NC1=NCCS1)c1csc2ccccc12 | > 4 mM (inactive)
COc1cccc(N2CCN(C(=O)c3cccnc3)CC2)c1 | > 4 mM (inactive)
O=C1c2cccnc2C(=O)N1Cc1ccco1 | > 4 mM (inactive)
Cc1c(-c2ccccc2)[n+](=O)c(-c2ccco2)c(C)n1[O-] | > 4 mM (inactive)
COc1ccc(N2C(=N)C(C)(C)NC2=O)cc1 | > 4 mM (inactive)
O=C1CCC(C(=O)NCc2ccc(Cl)cc2)N1 (configuration not stated) | > 4 mM (inactive)
